Molecular target: Eukaryotic initiation factor 4A-I (Homo sapiens, UniProt P60842)
Test: Inhibition of human recombinant N-terminal His6-tagged eIF4A expressed in Escherichia coli BL21 CodonPlus cells using ATP and yeast RNA as substrate preincubated with enzyme for 20 mins followed by susbtrate addition and measured after 4 hrs by Malachite green ATPase assay

Eukaryotic initiation factor 4A-I, sequence (P60842 whole entry): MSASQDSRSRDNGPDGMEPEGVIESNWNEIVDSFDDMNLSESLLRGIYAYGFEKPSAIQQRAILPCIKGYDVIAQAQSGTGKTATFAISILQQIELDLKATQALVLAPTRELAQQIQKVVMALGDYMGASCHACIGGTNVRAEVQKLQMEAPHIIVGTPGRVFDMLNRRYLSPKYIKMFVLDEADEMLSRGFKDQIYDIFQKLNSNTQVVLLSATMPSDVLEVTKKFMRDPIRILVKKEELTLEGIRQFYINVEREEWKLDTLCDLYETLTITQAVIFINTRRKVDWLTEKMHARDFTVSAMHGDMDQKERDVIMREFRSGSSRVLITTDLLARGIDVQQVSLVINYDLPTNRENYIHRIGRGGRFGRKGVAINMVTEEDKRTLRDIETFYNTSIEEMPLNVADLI

IC50 [µM]	EC50 [µM]	SMILES
25.8	–	O=C(O)c1cc(-c2ccc(-c3cccc(-c4ccccc4)c3)o2)nc2ccc([N+](=O)[O-])cc12
33	–	CCCCc1ccc(-c2ccc(-c3cc(C(=O)O)c4ccc(Br)cc4n3)o2)cc1
53.5	–	CCCCc1ccc(-c2ccc(-c3cc(C(=O)O)c4cc(OC)ccc4n3)o2)cc1
62.1	–	CCCOc1cccc(-c2ccc(-c3cc(C(=O)O)c4cc([N+](=O)[O-])ccc4n3)o2)c1
60	–	CCCCc1ccc(-c2ccc(-c3cc(C(=O)O)c4cc([N+](=O)[O-])ccc4n3)cn2)cc1
54	–	CCCCc1ccc(-c2ccc(-c3cc(C(=O)O)c4cc(F)c(F)cc4n3)o2)cc1
–	27.5	CCCCc1ccc(-c2ccc(-c3cc(C(=O)O)c4cccc([N+](=O)[O-])c4n3)o2)cc1
44	–	CCCCc1ccc(-c2ccc(-c3cc(C(=O)O)c4cc(Cl)ccc4n3)o2)cc1
140	–	CC(C)(C)OC(=O)Nc1ccc(-c2ccc(-c3cc(C(=O)O)c4cc([N+](=O)[O-])ccc4n3)o2)cc1
147	–	CCCCc1ccc(-c2ccc(-c3cc(C(=O)O)c4cc(CC)ccc4n3)o2)cc1
12.7	–	O=C(O)c1cc(-c2ccc(-c3ccc(Oc4ccccc4)cc3)o2)nc2ccc([N+](=O)[O-])cc12
129	–	CCCCc1ccc(-c2ccc(-c3cc(C(=O)OCC)c4cc(Br)ccc4n3)o2)cc1
> 150	–	CCCCc1ccc(-c2cncc(-c3cc(C(=O)O)c4cc([N+](=O)[O-])ccc4n3)c2)cc1
36.7	–	O=C(O)c1cc(-c2ccc(-c3cccc4ccccc34)o2)nc2ccc([N+](=O)[O-])cc12
66.1	–	O=C(O)c1cc(-c2ccc(-c3ccc(-c4ccccc4)cc3)o2)nc2ccc([N+](=O)[O-])cc12
46.6	–	CCCCc1ccc(-c2ccc(-c3cc(C(=O)O)c4ccc(F)cc4n3)o2)cc1
23.8	–	CCCCc1ccc(-c2ccc(-c3cc(C(=O)O)c4cccc(Br)c4n3)o2)cc1
8.77	–	CCCCCc1ccc(-c2ccc(-c3cc(C(=O)O)c4cc([N+](=O)[O-])ccc4n3)o2)cc1
41.5	–	CCCCc1ccc(-c2ccc(-c3cc(C(=O)O)c4cc(I)ccc4n3)o2)cc1

IC50 [µM]	EC50 [µM]	SMILES
111	–	CCCCc1ccc(-c2ccc(-c3cc(C(=O)O)c4cc(C)cc(C)c4n3)o2)cc1
45.7	–	CCCOc1ccc(-c2ccc(-c3cc(C(=O)O)c4cc([N+](=O)[O-])ccc4n3)o2)cc1
45.5	–	CCCOc1ccccc1-c1ccc(-c2cc(C(=O)O)c3cc([N+](=O)[O-])ccc3n2)o1
62.5	–	CCCCc1ccc(-c2ccc(-c3cc(C(=O)O)c4cc([N+](=O)[O-])ccc4n3)[nH]2)cc1
107	–	CCCCc1ccc(-c2ccc(-c3cc(C(=O)O)c4cc(C(C)C)ccc4n3)o2)cc1
124	–	CCCCc1ccc(-c2ccc(-c3cc(C(=O)O)c4cc(-c5ccccc5)ccc4n3)o2)cc1
85.8	–	CCCCc1ccc(-c2cccc(-c3cc(C(=O)O)c4cc([N+](=O)[O-])ccc4n3)n2)cc1
61	–	CCCCc1ccc(-c2ccc(-c3cc(C(=O)O)c4ccc(C(F)(F)F)cc4n3)o2)cc1
62.3	–	CCCCc1ccc(-c2ccc(-c3cc(C(=O)O)c4cc([N+](=O)[O-])ccc4n3)s2)cc1
> 150	–	O=C(O)c1cc(-c2ccc(-c3ccc4c(c3)OCO4)o2)nc2ccc([N+](=O)[O-])cc12
73.3	–	CCCCc1ccc(-c2ccc(-c3cc(C(=O)O)c4cccc(Cl)c4n3)o2)cc1
54.1	–	CCCCc1ccc(-c2ccc(-c3cc(C(=O)O)c4cc(F)ccc4n3)o2)cc1
74.1	–	CCCCc1ccc(-c2cccc(-c3cc(C(=O)O)c4cc([N+](=O)[O-])ccc4n3)c2)cc1
> 150	–	CCCCc1ccc(-c2ccc(-c3cc(C(=O)O)c4ccccc4n3)o2)cc1
22.2	–	O=C(O)c1cc(-c2ccc(-c3cccc(Oc4ccccc4)c3)o2)nc2ccc([N+](=O)[O-])cc12
135	–	CCCCc1ccc(-c2ccc(-c3cc(C(=O)O)c4c(Cl)cccc4n3)o2)cc1
26.9	–	CCCCc1ccc(-c2ccc(-c3cc(C(=O)O)c4cccc(C(F)(F)F)c4n3)o2)cc1
90.1	–	CCCCc1ccc(-c2ccc(-c3cc(C(=O)O)c4cc(Cl)c(Cl)cc4n3)o2)cc1

From ChEMBL document CHEMBL5241107, “Discovery of an eIF4A Inhibitor with a Novel Mechanism of Action” (J Med Chem, 2021)
